Measured values as given in ChEMBL document CHEMBL1201862, “PubChem BioAssay data set” (2004).
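Briefly, cells in 96-well plates were exposed to five compound concentrations for 48 h, and endpoints were estimated by linear interpolation. At the GI50, growth is halved.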 Activity calls are given as the source filed them. No stated cut-off is given here; in the data, active = GI50 up to about 1.1 µM and inactive = higher.

Experiments:
Experiment in all cases: NCI anticancer screen, dose series, 48 h
SK-MEL-5 = test system: SK-MEL-5
HT-29 = test system: HT-29
SNB-75 = test system: SNB-75
RPMI-8226 = test system: RPMI-8226
OVCAR-3 = test system: OVCAR-3
DLD-1 = test system: DLD-1
NCI-H522 = test system: NCI-H522
SK-OV-3 = test system: SK-OV-3
UACC-62 = test system: UACC-62
CCRF-CEM = test system: CCRF-CEM
MOLT-4 = test system: MOLT-4
M14 = test system: M14
TK-10 = test system: TK-10
RXF 393 = test system: RXF 393
SF-295 = test system: SF-295
SNB-78 = test system: SNB-78
MDA-MB-231 = test system: MDA-MB-231
MDA-N = test system: MDA-N
Hs-578T = test system: Hs-578T
PC-3 = test system: PC-3

SMILES | GI50 (SK-MEL-5) | GI50 (HT-29) | GI50 (SNB-75) | GI50 (RPMI-8226) | GI50 (OVCAR-3) | GI50 (DLD-1) | GI50 (NCI-H522) | GI50 (SK-OV-3) | GI50 (UACC-62) | GI50 (CCRF-CEM) | GI50 (MOLT-4) | GI50 (M14) | GI50 (TK-10) | GI50 (RXF 393) | GI50 (SF-295) | GI50 (SNB-78) | GI50 (MDA-MB-231) | GI50 (MDA-N) | GI50 (Hs-578T) | GI50 (PC-3)
Cc1cccc(NC(=O)C(=O)C2C(=O)NC(=O)NC2=O)c1C | > 100 µM (inactive) | > 100 µM (inactive) | > 100 µM (inactive) | > 100 µM (inactive) | > 100 µM (inactive) | > 100 µM (inactive) | > 100 µM (inactive) | > 100 µM (inactive) | > 100 µM (inactive) | > 100 µM (inactive) | > 100 µM (inactive) | > 100 µM (inactive) | > 100 µM (inactive) | > 100 µM (inactive) | > 100 µM (inactive) | > 100 µM (inactive) |  |  |  | 
CCN(CC)CCNc1ccc(C)c2sc3ccc(O)cc3c(=O)c12 | 0.851 µM (active) | 1.58 µM (inactive) | 1.05 µM (active) | 1.05 µM (active) | 2.15 µM (inactive) | 1.66 µM (inactive) | 1.28 µM (inactive) | 1.52 µM (inactive) | 0.986 µM (active) | 0.0991 µM (active) | < 0.012 µM (active) | 1.19 µM (inactive) | 3.4 µM (inactive) | 2.51 µM (inactive) | 0.27 µM (active) | 1.76 µM (inactive) |  |  |  | 
c1cc2c(ncc3cscc32)s1 | > 100 µM (inactive) | > 100 µM (inactive) | > 52.6 µM (inactive) | > 100 µM (inactive) | > 100 µM (inactive) | > 100 µM (inactive) | > 100 µM (inactive) | > 10 µM (inactive) | > 31.6 µM (inactive) | > 100 µM (inactive) | > 100 µM (inactive) | > 100 µM (inactive) | > 100 µM (inactive) | > 79.3 µM (inactive) | > 100 µM (inactive) | > 100 µM (inactive) | > 100 µM (inactive) | > 100 µM (inactive) | > 100 µM (inactive) | > 100 µM (inactive)
O=C1NC(=O)C(C(=O)C(=O)Nc2cc(Cl)ccc2Cl)C(=O)N1 | > 100 µM (inactive) |  | 83.2 µM (inactive) | > 100 µM (inactive) | > 100 µM (inactive) | > 100 µM (inactive) | > 100 µM (inactive) | > 100 µM (inactive) | > 100 µM (inactive) | > 100 µM (inactive) | > 100 µM (inactive) | > 100 µM (inactive) | > 100 µM (inactive) | > 100 µM (inactive) | > 100 µM (inactive) | > 100 µM (inactive) |  |  |  | 
COc1ccc(NC(=O)CC(=O)N/N=C/c2ccc(N(CCC#N)S(C)(=O)=O)cc2)cc1 | > 100 µM (inactive) | > 100 µM (inactive) | > 100 µM (inactive) | > 100 µM (inactive) | > 100 µM (inactive) | > 100 µM (inactive) | > 100 µM (inactive) | > 100 µM (inactive) | > 100 µM (inactive) | > 100 µM (inactive) | > 100 µM (inactive) | > 100 µM (inactive) | > 100 µM (inactive) | > 100 µM (inactive) | > 100 µM (inactive) | > 100 µM (inactive) |  |  |  | 
CCOC(=O)CCC(NC(=O)c1ccc(NCc2ccc3nc(-c4ccccc4)c(Cl)nc3c2)cc1)C(=O)OCC (configuration not stated) | 11.3 µM (inactive) | > 100 µM (inactive) | 16.9 µM (inactive) | 18.2 µM (inactive) | 17.2 µM (inactive) | 28.6 µM (inactive) | 19.5 µM (inactive) | > 100 µM (inactive) |  | 25.6 µM (inactive) | 9.25 µM (inactive) | 16.4 µM (inactive) | 83.9 µM (inactive) | 48.9 µM (inactive) | 76.2 µM (inactive) | 32.4 µM (inactive) |  |  |  | 
O=C1c2ccccc2C(=O)N1CCN(CCN1C(=O)c2ccccc2C1=O)Cn1cccn1 | > 100 µM (inactive) |  | 87.3 µM (inactive) | 29.2 µM (inactive) | > 100 µM (inactive) | 31.9 µM (inactive) | > 100 µM (inactive) | > 100 µM (inactive) | 28.2 µM (inactive) | 32.7 µM (inactive) | > 100 µM (inactive) | > 100 µM (inactive) | > 100 µM (inactive) | > 100 µM (inactive) | > 100 µM (inactive) | > 100 µM (inactive) |  |  |  | 
NC(=O)C(=O)N/N=C(\CC1(O)C(=O)Nc2ccccc21)c1ccc2ccccc2c1 (configuration not stated) | 32.3 µM (inactive) | 34.4 µM (inactive) | 40.6 µM (inactive) | 34.4 µM (inactive) | 25.8 µM (inactive) | 37.8 µM (inactive) | 18.7 µM (inactive) | 46.9 µM (inactive) | 19.8 µM (inactive) | 20.3 µM (inactive) | 20.9 µM (inactive) | 32.7 µM (inactive) | 50.2 µM (inactive) | 24.8 µM (inactive) | 37.9 µM (inactive) | 72.9 µM (inactive) |  |  |  | 
COC(=O)c1ccc(/C=C/S(=O)(=O)c2ccccc2)cc1 | > 100 µM (inactive) | > 100 µM (inactive) | 67.6 µM (inactive) | > 100 µM (inactive) | > 100 µM (inactive) | > 100 µM (inactive) | 83.9 µM (inactive) | > 100 µM (inactive) | > 100 µM (inactive) | > 100 µM (inactive) | > 100 µM (inactive) | > 100 µM (inactive) | > 100 µM (inactive) | > 100 µM (inactive) | > 100 µM (inactive) | > 100 µM (inactive) |  |  |  | 
COC(=O)c1ccc2n[se]nc2c1 | > 100 µM (inactive) | > 100 µM (inactive) | 83.6 µM (inactive) | > 100 µM (inactive) |  | > 100 µM (inactive) | > 100 µM (inactive) | > 100 µM (inactive) | > 100 µM (inactive) | > 100 µM (inactive) | > 100 µM (inactive) | > 100 µM (inactive) | > 100 µM (inactive) | > 100 µM (inactive) | > 100 µM (inactive) | > 100 µM (inactive) |  |  |  | 
CC(=O)OC12C=CC(=O)N1c1ccccc1C(=O)O2 (configuration not stated) | > 100 µM (inactive) | > 100 µM (inactive) | > 100 µM (inactive) | > 100 µM (inactive) | > 100 µM (inactive) | > 100 µM (inactive) | > 100 µM (inactive) | > 100 µM (inactive) | > 100 µM (inactive) | > 100 µM (inactive) | > 100 µM (inactive) | > 100 µM (inactive) | > 100 µM (inactive) | > 100 µM (inactive) | > 100 µM (inactive) | 32.1 µM (inactive) |  |  |  | 
O=C1C(=O)C2(CC1S(=O)(=O)c1ccccc1)c1ccccc1-c1ccccc12 (configuration not stated) | 14.6 µM (inactive) | 27 µM (inactive) | 37.3 µM (inactive) | 26.4 µM (inactive) | > 10 µM (inactive) | 24.8 µM (inactive) | 22.5 µM (inactive) | 38.9 µM (inactive) | 16.6 µM (inactive) | 24.7 µM (inactive) | 20.4 µM (inactive) | 13.9 µM (inactive) | 25.8 µM (inactive) | 18.7 µM (inactive) | 21.3 µM (inactive) | 17.5 µM (inactive) |  |  |  | 
